Test results: patent US20220087952A1, “ANTI-APICOMPLEXAN COMPOSITIONS” (priority 2019, published 2022)

Assays:
[1] = system: Eimeria arloingi oocyst extracted from goat feces; assay: In-vitro oocyst sporulation assay (Example 2); type: cell-based; conditions: in Capra hircus, read-out: sporulation impairment (inhibition of sporulation) compared to control
Experimental: Eimeria-infected feces were collected from goats and stored at 4° C. Later, 3 grams of feces were mixed with 42 ml of tap water. The sample was homogenized and passed through a mesh, after which the filtered liquid was collected into 50 ml tubes. The liquid was then washed three times with cold tap water and centrifuged (1,700 G, 5 minutes, 20° C.). In each wash, the supernatant was carefully removed and approximately 30 to 40 ml of cold water was added. After the last wash, the water was removed and replaced with saturated sugar flotation solution (500 gr sucrose in 320 ml double distilled water), wherein each tube was filled with up to 45 ml of the sugar flotation solution. Each tube was centrifuged twice, wherein after each round of centrifugation, the ring-shaped phase formed on the top of the sugar solution was collected (about 1-2 ml collected after each round) and preserved in a 50 ml plastic tube.
The plastic tube was filled with cold water and centrifuged again. Oocysts were found in the sediment after centrifugation. The water was gently removed and the concentration of the oocysts was evaluated. The oocysts were then stored at 4° C. until use (the use of unsporulated oocysts that are older than two weeks was avoided). It is noted that a 2% potassium dichromate solution may be used for conservation. The unsporulated oocytes were washed in cold phosphate buffered saline (PBS, X10) before use in order to remove potassium dichromate (if used). The concentration of the oocysts was adjusted to approximately 30,000/ml.
Extract was prepared according to Example 1 above. Extract can be mixed with Phosphate buffer saline (PBS, X1, w:w, 1:10) if not perfectly soluble in water.
Each assay was in triplicates for each concentration of extract and gallic acid purchased at Sigma. In addition, six concentrations of gallic acid (50, 150, 250, 350, 450, 550 ppm) were added to 2000 and 4000 ppm of the invention extract to check synergism of gallic acid and the extract on impairment of sporulation. […]

[2] = system: Eimeria spp. (Paracox 5 at twenty-fold dose); assay: Eimeria-infected chicks given supplemented drinking water (Example 5); type: in vivo; conditions: for Body weight of chicks (Means ± SE) / Average daily gain / Oocyst counts in droppings: C uninfected, T infected, AS % antisolvent, GA ppm gallic acid in water
Experimental: 160 chicks allotted to 8 treatments, encompassing two groups of uninfected birds and six groups of Eimeria-infected birds, were tested. Birds were administered water treatment from 7 days of age and infected when 10-days old.
Inoculation was individually, per os, by using a dose of Paracox 5, a live attenuated anticoccidial vaccine including administered at the twenty-fold the recommended dose (Table 2), in a volume of 1 ml, when chicks were 10 days old. Uninfected birds were given the same volume of saline. Eimeria spp were as in Table 2.
(§1) Water was supplied in 3-liter poultry troughs that were re-filled when needed. Tap water was initially given and water supplementation was initiated three days after chicks' arrival. Water treatments for the uninfected (C) birds were no antisolvent and no gallic acid (C_AS0%_GA0) and 1% antisolvent with 500 ppm of gallic acid (C_AS1%_GA500).
(§2) Water treatments for the infected (T) birds were bi-factorial with 3 levels of antisolvent (AS; 0, 0.5, and 1%) and two levels of gallic acid (GA; 0 and 500 ppm) resulting in 6 groups: […], T_AS0.5%_GA0, T_AS1%_GA0, T_AS0.5%_GA0, T_AS0.5% _GA500, and T_AS1%_GA500.
(§3) Birds were wing-tagged and weighed on infection day and then, 7 days after infection. Half of the birds were weighed and humanely euthanized by exposure to CO2 on day 14 after infection and the second half on day 17 after infection. Water intake was recorded. Droppings were collected from a 1 m^2 paper sheet placed in each group 12 h before each weighing and kept at 4° C. until oocysts were counted under a grated microscope at ×100 and ×400 at days 0, and 7.
No existing method, based on mono-species Eimeria infection, was satisfactory. The duodenum was examined at three sites (proximal, medial, distal) and a separate score was recorded for each. In contrast, only one score was recorded for the ileum-jejunum, and one for the caeca. Organ scores were termed D (average of 3 sites along the duodenum), J, and C. Three composite scores were established: a. sum of the average duodenal score, the jejunal score and the caecal score; b. sum of the maximal duodenal, jejunal and caecal scores; c. number of lesion-affected organs (1-3).
Data for body weight (BW) and average daily gain was log-transformed in order to homogenize variances. The C_AS0%_GA0 and […] in order to assess the effect of infection. The C_AS0%_GA0 and the C_AS1%_GA500 were compared to evaluate possible toxicity due to water treatment. All groups encompassing bi-factorial levels of AS and GA were compared by bi-factorial ANOVA.
For the analysis of lesions, for each treatment and slaughter day, the Wilcoxon Rank Sum Test was run. Then, using the Iman-Connover method, a rank transformation was done on original data and a two-way ANOVA was run on the ranked data. The treatment x day interaction was significant for J. Sum DJC, and #organs affected and Pairwise comparisons were made by Tukey test.

[3] = Water intake and toxicity of supplemented drinking water in chicks (Example 5); type: in vivo
Excerpt: as §1, §2, §3
Data for body weight (BW) and average daily gain was log-transformed in order to homogenize variances. The C_AS0%_GA0 and […] in order to assess the effect of infection. The C_AS0%_GA0 and the C_AS1%_GA500 were compared to evaluate possible toxicity due to water treatment. […]

[4] = system: Eimeria spp. (Paracox 5 at twenty-fold dose); assay: Eimeria-infected chicks given supplemented drinking water (Example 5); type: in vivo; conditions: d 14 relative to infection day; C uninfected, T infected; AS % antisolvent, GA ppm gallic acid in water

Row | Structure (SMILES) | inhibition at 50 µg/mL [1] | Body weight of chicks (Means ± SE) ([2]; D 17 relative to infection day) | Average daily gain ([2]; Days 0-7) | Average daily gain ([2]; Days 8-14) | Average daily gain ([2]; Days 14-17) | Body weight of chicks (Means ± SE) ([2]; d 0 relative to infection day) | Oocyst counts in droppings ([2]; d 0 relative to infection day) | Body weight of chicks (Means ± SE) ([2]; d 7 relative to infection day) | Oocyst counts in droppings ([2]; d 7 relative to infection day) | Body weight of chicks (Means ± SE) ([2]; d 14 relative to infection day) | growth performance / body weight of Eimeria-infected birds, in words ([2]; water treatment from 7 days of age, infection at 10 days, dose in label) | Water intake ([3]; code: C uninfected, T infected, AS % antisolvent (0.5% = 5,000 ppm, 1% = 10,000 ppm), GA ppm gallic acid in water) | signs of toxicity ([3]; in vivo) | Oocyst counts in droppings [4]
1 | O=C(O)c1cc(O)c(O)c(O)c1 [Gallic acid, gallic acid] | 25% | 1290.0 ± 83.4 ab | 32.9 ± 1.4 g/day | 53.2 ± 2.5 g/day | 99.9 ± 6.2 g/day | 168.9 ± 4.3 | 0 gr^−1 | 399.5 ± 13.4 a | 10,650 gr^−1 | 984.4 ± 40.1 ab | no advantage in adding gallic acid if an AS treatment was given | 132 ml chick^−1 dr^−1 | No signs of toxicity whatsoever | 3,600 gr^−1
2 | O=C(O)/C=C/c1ccc(O)c(O)c1 [caffeic acid, Caffeic acid] | 43% |  |  |  |  |  |  |  |  |  |  |  |  | 
3 | COc1cc(C(=O)O)ccc1O [vanillic acid] | 23% |  |  |  |  |  |  |  |  |  |  |  |  | 
